Data on 19 compounds can be found in patent US20230117470A1, “SUBSTITUTED PYRAZOLE COMPOUNDS AS TOLL RECEPTOR INHIBITORS” (BRISTOL-MYERS SQUIBB COMPANY, priority 2019, published 2023).

Common to all, as to assay type: cell-based
One test addresses T1, human TLR7 (Homo sapiens, UniProt Q9NYK1).
T1 construct: host or cells: HEK-Blue cells
T1 sequence (Q9NYK1 27-1049): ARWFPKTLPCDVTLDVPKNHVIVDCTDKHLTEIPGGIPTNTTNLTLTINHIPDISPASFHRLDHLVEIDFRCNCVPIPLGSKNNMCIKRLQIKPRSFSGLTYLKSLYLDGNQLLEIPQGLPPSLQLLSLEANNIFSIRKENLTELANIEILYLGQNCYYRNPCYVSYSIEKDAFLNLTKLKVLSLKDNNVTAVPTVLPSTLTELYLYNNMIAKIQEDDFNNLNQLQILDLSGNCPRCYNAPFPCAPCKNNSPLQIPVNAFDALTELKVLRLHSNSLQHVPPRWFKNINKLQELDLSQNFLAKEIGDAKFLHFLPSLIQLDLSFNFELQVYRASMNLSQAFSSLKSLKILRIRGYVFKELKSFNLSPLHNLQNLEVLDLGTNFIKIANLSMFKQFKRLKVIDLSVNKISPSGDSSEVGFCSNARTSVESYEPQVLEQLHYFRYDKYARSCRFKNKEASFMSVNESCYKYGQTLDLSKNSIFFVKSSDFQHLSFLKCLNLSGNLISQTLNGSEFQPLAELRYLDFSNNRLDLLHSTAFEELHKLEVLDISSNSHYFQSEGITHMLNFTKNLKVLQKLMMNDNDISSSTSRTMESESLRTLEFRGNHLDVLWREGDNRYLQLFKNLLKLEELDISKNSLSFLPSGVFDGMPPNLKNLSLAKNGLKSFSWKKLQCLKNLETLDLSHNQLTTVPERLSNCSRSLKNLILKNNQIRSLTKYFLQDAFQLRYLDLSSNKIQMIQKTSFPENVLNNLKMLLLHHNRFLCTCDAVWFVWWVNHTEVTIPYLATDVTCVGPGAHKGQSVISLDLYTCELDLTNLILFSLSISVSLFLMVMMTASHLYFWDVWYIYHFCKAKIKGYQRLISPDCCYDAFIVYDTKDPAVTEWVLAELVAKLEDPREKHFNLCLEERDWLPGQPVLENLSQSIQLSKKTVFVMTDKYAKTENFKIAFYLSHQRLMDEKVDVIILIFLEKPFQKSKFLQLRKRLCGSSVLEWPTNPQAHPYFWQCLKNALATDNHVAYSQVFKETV
Nature of the test: TLR7 inhibition reporter assay (HEK-Blue cells, SEAP reporter, gardiquimod stimulation). Conditions: HEK-Blue cells overexpressing human TLR7, SEAP reporter, gardiquimod 7.5 μM. On the procedure:
(§1) TLR7/8/9 Inhibition Reporter Assays
(§2) HEK-Blue™-cells (Invivogen) overexpressing human TLR7, TLR8 or TLR9 receptors were used for screening inhibitors of these receptors using an inducible SEAP (secreted embryonic alkaline phosphatase) reporter gene under the control of the IFN-β minimal promoter fused to five NF-κB and AP-1-binding sites. Briefly, cells are seeded into Greiner 384 well plates (15000 cells per well for TLR7, 20,000 for TLR8 and 25,000 for TLR9) and then treated with test compounds in DMSO to yield a final dose response concentration range of 0.05 nM-50 μM. After a 30 minute compound pre-treatment at room temperature, the cells are then stimulated with a TLR7 ligand (gardiquimod at a final concentration of 7.5 μM), TLR8 ligand (R848 at a final concentration of 15.9 μM) or TLR9 ligand (ODN2006 at a final concentration of 5 nM) to activate NF-κB and AP-1 which induce the production of SLA After a 22 hour incubation at 37° C., […], SEAP levels are determined with the addition of HEK-Blue™ Detection reagent (Invivogen), a cell culture medium that allows for detection of SLAP, according to manufacturer's specifications. The percent inhibition is determined as the % reduction in the HEK-Blue signal present in wells treated with agonist plus DMSO alone compared to wells treated with a known inhibitor.
(Reporter assays use an easily measured gene product as a stand-in for the process of interest.)

A further test concerns the target T2, human TLR9 (Homo sapiens, UniProt Q9NR96).
T2 construct: host or cells: HEK-Blue cells
T2 sequence (Q9NR96 26-1032): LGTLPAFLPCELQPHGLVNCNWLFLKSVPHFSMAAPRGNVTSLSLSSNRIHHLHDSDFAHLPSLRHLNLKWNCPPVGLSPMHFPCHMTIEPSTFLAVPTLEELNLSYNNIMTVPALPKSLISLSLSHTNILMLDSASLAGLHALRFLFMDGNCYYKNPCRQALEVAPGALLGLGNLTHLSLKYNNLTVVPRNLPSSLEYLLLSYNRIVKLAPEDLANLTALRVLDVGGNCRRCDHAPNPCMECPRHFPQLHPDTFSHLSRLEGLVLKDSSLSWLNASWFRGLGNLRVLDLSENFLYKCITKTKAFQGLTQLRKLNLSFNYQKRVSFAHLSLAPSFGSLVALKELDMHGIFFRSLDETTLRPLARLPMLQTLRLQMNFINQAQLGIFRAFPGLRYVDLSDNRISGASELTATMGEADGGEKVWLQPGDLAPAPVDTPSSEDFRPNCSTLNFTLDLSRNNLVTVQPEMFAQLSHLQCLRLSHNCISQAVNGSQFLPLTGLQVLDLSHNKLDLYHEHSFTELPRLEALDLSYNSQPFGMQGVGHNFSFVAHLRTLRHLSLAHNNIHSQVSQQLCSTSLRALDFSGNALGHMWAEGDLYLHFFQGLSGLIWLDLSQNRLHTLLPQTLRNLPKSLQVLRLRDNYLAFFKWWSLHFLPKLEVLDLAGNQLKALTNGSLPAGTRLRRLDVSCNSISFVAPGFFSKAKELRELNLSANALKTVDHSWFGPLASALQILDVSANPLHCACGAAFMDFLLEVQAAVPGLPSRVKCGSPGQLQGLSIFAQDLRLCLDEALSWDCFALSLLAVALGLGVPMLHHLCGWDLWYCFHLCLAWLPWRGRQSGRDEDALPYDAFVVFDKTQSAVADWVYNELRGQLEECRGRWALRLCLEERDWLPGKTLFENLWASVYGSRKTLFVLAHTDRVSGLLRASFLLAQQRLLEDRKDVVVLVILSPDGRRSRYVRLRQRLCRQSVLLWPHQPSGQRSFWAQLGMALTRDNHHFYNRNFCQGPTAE
Nature of the test: TLR9 inhibition reporter assay (HEK-Blue cells, SEAP reporter, ODN2006 stimulation). Conditions: HEK-Blue cells overexpressing human TLR9, SEAP reporter, ODN2006 5 nM. The procedure:
as §1, §2

A further test addresses T3, human TLR8 (Homo sapiens, UniProt Q9NR97).
T3 construct: host or cells: HEK-Blue cells
T3 sequence (Q9NR97 27-1041): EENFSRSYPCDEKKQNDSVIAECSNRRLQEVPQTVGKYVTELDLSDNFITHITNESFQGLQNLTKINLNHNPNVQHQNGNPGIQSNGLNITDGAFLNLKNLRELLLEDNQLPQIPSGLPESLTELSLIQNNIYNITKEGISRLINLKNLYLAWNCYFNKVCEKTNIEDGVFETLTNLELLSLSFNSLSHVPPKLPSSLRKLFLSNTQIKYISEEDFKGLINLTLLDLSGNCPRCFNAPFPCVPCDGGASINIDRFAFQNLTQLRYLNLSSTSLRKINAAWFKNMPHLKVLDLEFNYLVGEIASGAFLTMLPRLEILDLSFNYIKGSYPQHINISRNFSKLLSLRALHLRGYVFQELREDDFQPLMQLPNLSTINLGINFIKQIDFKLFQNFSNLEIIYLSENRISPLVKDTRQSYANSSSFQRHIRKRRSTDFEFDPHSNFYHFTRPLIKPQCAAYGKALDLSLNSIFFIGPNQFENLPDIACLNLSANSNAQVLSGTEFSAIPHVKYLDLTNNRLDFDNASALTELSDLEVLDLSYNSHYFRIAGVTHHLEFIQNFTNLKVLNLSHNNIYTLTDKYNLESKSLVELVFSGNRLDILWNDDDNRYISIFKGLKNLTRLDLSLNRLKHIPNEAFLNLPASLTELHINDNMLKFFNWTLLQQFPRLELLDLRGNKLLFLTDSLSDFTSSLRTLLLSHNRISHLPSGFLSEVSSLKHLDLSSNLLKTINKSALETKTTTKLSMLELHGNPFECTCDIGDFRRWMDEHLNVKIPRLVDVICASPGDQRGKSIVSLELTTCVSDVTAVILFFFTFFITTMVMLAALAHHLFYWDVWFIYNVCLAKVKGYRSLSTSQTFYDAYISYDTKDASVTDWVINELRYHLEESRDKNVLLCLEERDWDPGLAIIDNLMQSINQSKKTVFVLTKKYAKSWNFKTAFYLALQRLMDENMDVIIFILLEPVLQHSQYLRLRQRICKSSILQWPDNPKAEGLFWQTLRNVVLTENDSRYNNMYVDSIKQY
Nature of the test: TLR8 inhibition reporter assay (HEK-Blue cells, SEAP reporter, R848 stimulation). Conditions: HEK-Blue cells overexpressing human TLR8, SEAP reporter, R848 15.9 μM. On the procedure: as §1, §2

In the case of `COCCN1CCC(c2ccc(-c3n[nH]c(-c4cc(OC)c5ncnn5c4)c3C(C)C)cc2)CC1` [Example 318, 6-(4-isopropyl-3-(4-(1-(2-methoxyethyl)piperidin-4-yl)phenyl)-1H-pyrazol-5-yl)-8-methoxy-[1,2,4]triazolo[1,5-a]pyridine], the 50% inhibitory concentration (IC50) on human TLR7 amounted to 6.23 nM; against human TLR9, 21600 nM; against human TLR8 it was 0.83 nM.

As to `COc1cc(-c2[nH]nc(C(=O)N3CCCN(C)CC3)c2C(C)C)cn2ncnc12` [Example 10], the IC50 at human TLR7 stood at 1.37 nM; against human TLR9, 1330 nM; against human TLR8, 1.9 nM.

In the case of `Cc1cc(-c2[nH]nc(C(=O)N3CCC(N)CC3)c2C(C)C)cn2ncnc12` [Example 55], the concentration for half-maximal inhibition (IC50) is 2.99 nM at human TLR7, above 50000 nM against human TLR9 and 1.15 nM against human TLR8.

For the compound `Cc1cc(-c2[nH]nc(C(=O)N[C@H]3CC[C@@H](NC(C)C)CC3)c2C(C)C)cn2ncnc12` [Example 85], the IC50 is 2.66 nM against human TLR7, 6910 nM at human TLR9 and 17.5 nM at human TLR8.

As to `COc1cc(-c2[nH]nc(-c3ccc(C4CCN(C)CC4)cc3)c2C(C)C)cn2ncnc12` [Example 314], the IC50 on human TLR7 was 13.9 nM; on human TLR9, above 50000 nM; on human TLR8 it was 18.5 nM.

On to `Cc1cc(-c2[nH]nc(-c3ccc(NC(C)C)nc3)c2C(C)C)cn2ncnc12` [Example 240], for which the IC50 at human TLR7 amounted to 3.72 nM; against human TLR9, 6230 nM; at human TLR8 it was 2.82 nM.

Regarding `Cc1cc(-c2[nH]nc(-c3ncc(C4CCN(CC(C)(C)C)CC4)cn3)c2C(C)C)cn2ncnc12` [Example 371], the IC50 against human TLR7 was 72.1 nM; against human TLR9, above 50000 nM; at human TLR8 it was 29.4 nM.

For `Cc1cc(-c2[nH]nc(C(=O)NC3CCC(NCC(C)(C)C)CC3)c2C(C)C)cn2ncnc12` (stereo not drawn) [Example 131], the IC50 against human TLR7 is 7.48 nM; against human TLR9, 10900 nM; on human TLR8, 32.6 nM.

For `Cc1cc(-c2[nH]nc(C(=O)NCC3CN(C(C)C)CCO3)c2C(C)C)cn2ncnc12` (stereo not drawn) [Example 141], the IC50 worked out at 3.03 nM against human TLR7, 12800 nM on human TLR9 and 13.5 nM at human TLR8.

Consider `Cc1cc(-c2[nH]nc(C(=O)NC3CCN(C4COC4)CC3)c2C(C)C)cn2ncnc12` [Example 70], for which the results for the IC50 at human TLR7, on human TLR9 and against human TLR8 were 0.58 nM, 6610 nM and 1.46 nM, respectively.

As for `Cc1cc(-c2[nH]nc(C(=O)NC3CCCNC3)c2C(C)C)cn2ncnc12` (stereo not drawn) [Example 66], the values for the IC50 at human TLR7, against human TLR9 and against human TLR8 were 3.59 nM, 5710 nM and 16.9 nM, respectively.

As for `Cc1cc(-c2[nH]nc(C(=O)NCC3CN(C4COC4)CCO3)c2C(C)C)cn2ncnc12` (stereo not drawn) [Example 136], the IC50 came to 1.69 nM against human TLR7, 42800 nM on human TLR9 and 4.36 nM against human TLR8.

`CCCN1CCC(c2ccc(-c3n[nH]c(-c4cc(OC)c5ncnn5c4)c3C(C)C)nc2)CC1` [Example 349]: the IC50 on human TLR7 was 91 nM; at human TLR9 it was above 50000 nM; on human TLR8, 1.85 nM.

Turning to `Cc1cc(-c2[nH]nc(C(=O)N3CCN(CCC#N)CC3)c2C(C)C)cn2ncnc12` [Example 19], the IC50 was 1.4 nM on human TLR7, 5940 nM against human TLR9 and 12 nM on human TLR8.

Take `Cc1cc(-c2[nH]nc(C3CCC(N4CCC(N(C)C)CC4)CC3)c2C(C)C)cn2ncnc12` (single isomer, unassigned) [Example 292]: the concentration for half-maximal inhibition (IC50) against human TLR7 worked out at 3.18 nM; at human TLR9 it was 7520 nM; against human TLR8, 0.46 nM.

Regarding `Cc1cc(-c2[nH]nc(C(=O)N[C@H]3CC[C@H](NCC(C)(C)C)CC3)c2C(C)C)cn2ncnc12` [Example 106], the concentration for half-maximal inhibition (IC50) at human TLR7 was determined as 2.25 nM; at human TLR9 it was 14300 nM; against human TLR8, 90.9 nM.

As for `COc1cc(-c2[nH]nc(-c3ccc(C4CCN(CC(N)=O)CC4)cc3)c2C(C)C)cn2ncnc12` [compound 322], the IC50 on human TLR7 amounted to 15.7 nM; at human TLR9, 35800 nM; on human TLR8, 4.67 nM.

As for `CCN1CCOC(CNC(=O)c2n[nH]c(-c3cc(C)c4ncnn4c3)c2C(C)C)C1` (stereo not drawn) [Example 140], the IC50 on human TLR7 amounted to 0.59 nM; against human TLR9, 10400 nM; at human TLR8, 0.89 nM.

For `Cc1cc(-c2[nH]nc(-c3cncc(N)c3)c2C(C)C)cn2ncnc12` [Example 225], the IC50 worked out at 2.56 nM against human TLR7, 5490 nM against human TLR9 and 3.94 nM against human TLR8.

Broadly, the IC50 is the concentration that inhibits the measured activity by half.
